Reference: patent US20100063047A1 (KALYPSYS, INC., priority 2008, published 2010)

Target: T1, human H1 (Homo sapiens, UniProt P35367)
T1 construct: host or cells: CHO-K1, also expressing mitochondrion-targeted aequorin
Assay: In vitro histamine H1 receptor cell-based aequorin bioluminescence antagonist assay
Details: CHO-K1 cells expressing human H1 and aequorin; histamine at EC80; read-out: H1 Antagonist EC50
Description: In vitro Histamine Receptor Cell-Based Assays
The cell-based assays utilize an aequorin dependent bioluminescence signal. Doubly-transfected, stable CHO—K1 cell lines expressing human H1 or H4, mitochondrion-targeted aequorin, and (H4 only) human G protein Gα16 are obtained from Perkin-Elmer. Cells are maintained in F12 (Ham's) growth medium, containing 10% (vol./vol.) fetal bovine serum, penicillin (100 IU/mL), streptomycin (0.1 mg/mL), zeocin (0.25 mg/mL) and geneticin (0.40 mg/mL). Cell media components are from Invitrogen, Inc. One day prior to assay, the growth medium is replaced with the same, excluding zeocin and geneticin.
For assay preparation, growth medium is aspirated, and cells are rinsed with calcium-free, magnesium-free phosphate-buffered saline, followed by two to three minute incubation in Versene (Invitrogen, Inc.) at 37° C. Assay medium (DMEM:F12 [50:50], phenol-red free, containing 1 mg/mL protease-free bovine serum albumin) is added to collect the released cells, which are then centrifuged. The cell pellet is re-suspended in assay medium, centrifuged once more, and re-suspended in assay medium to a final density of 5×10^6 cells/mL. Coelenterazine-h dye (500 μM in ethanol) is added to a final concentration of 5 μM, and mixed immediately. The conical tube containing the cells is then wrapped with foil to protect the light-sensitive dye. The cells are incubated for four hours further at room temperature (approximately 21° C.) with end-over-end rotation to keep them in suspension.
Just before assay, the dye-loaded cells are diluted to 0.75×10^6 cells/mL (H1 receptor) or 1.5×10^6 cells/mL (H4 receptor) with additional assay medium. Cells are dispensed to 1536 well micro-titer plates at 3 μL/well. To assay receptor antagonism, 60 nl of 100× concentration test compounds in 100% dimethyl sulfoxide (DMSO) are dispensed to the wells, one compound per well, by passive pin transfer, and the plates are incubated for 15 minutes at room temperature. […] The pipette dispenses 3 μL/well of agonist (histamine, at twice the final concentration, where final concentration is a previously determined EC80) in assay medium, with concurrent bioluminescence detection. Agonist activity of test compounds is excluded by separate assays that measure response to test compounds immediately, without added histamine agonist.
CCD image capture on the Lumilux includes a 5 second baseline read prior to agonist addition, and generally a 40 second read per plate after agonist addition. A decrease in bioluminescence signal (measured either as area-under-the-curve, or maximum signal amplitude minus minimum signal amplitude) correlates with receptor antagonism in a dose dependent manner. The negative control is DMSO lacking any test compound. For antagonist assays, the positive controls are diphenhydramine (2-Diphenylmethoxy-N,N-dimethylethylamine, 10 μM final concentration, H1 receptor) or JNJ7777120 (1-[(5-Chloro-1H-indol-2-yl)carbonyl]-4-methyl-piperazine, 10 μM final concentration, H4 receptor). Efficacy is measured as a percentage of positive control activity.

T1 sequence (P35367 whole entry): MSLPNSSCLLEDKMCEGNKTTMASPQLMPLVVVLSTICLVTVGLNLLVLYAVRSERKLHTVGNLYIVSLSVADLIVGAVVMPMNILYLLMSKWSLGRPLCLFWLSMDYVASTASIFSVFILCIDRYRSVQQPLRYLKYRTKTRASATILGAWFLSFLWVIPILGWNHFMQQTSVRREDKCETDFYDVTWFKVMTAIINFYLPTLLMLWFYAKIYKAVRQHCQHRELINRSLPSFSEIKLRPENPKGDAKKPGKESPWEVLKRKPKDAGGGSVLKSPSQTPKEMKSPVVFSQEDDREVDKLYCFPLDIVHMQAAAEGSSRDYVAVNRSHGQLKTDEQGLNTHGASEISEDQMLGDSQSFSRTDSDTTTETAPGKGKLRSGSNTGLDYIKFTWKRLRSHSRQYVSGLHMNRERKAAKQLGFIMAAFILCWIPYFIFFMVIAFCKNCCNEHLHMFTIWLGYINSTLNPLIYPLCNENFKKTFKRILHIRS

EC50, > 10 µM:
Cc1cccc(CNc2ncnc3scc(C)c23)c1 [Example 95, 5-methyl-N-[(3-methylphenyl)methyl]thieno[2,3-d]pyrimidin-4-amine]
Cc1csc2ncnc(N[C@@H](C)c3ccccc3)c12 [Example 96, 5-methyl-N-[(1S)-1-phenylethyl]thieno[2,3-d]pyrimidin-4-amine]
Cc1csc2ncnc(N[C@H](C)c3ccccc3)c12 [Example 97, 5-methyl-N-[(1R)-1-phenylethyl]thieno[2,3-d]pyrimidin-4-amine]
Cc1ccccc1CNc1ncnc2scc(C)c12 [Example 99, 5-methyl-N-[(2-methylphenyl)methyl]thieno[2,3-d]pyrimidin-4-amine]
Cc1ccc(CNc2ncnc3scc(C)c23)cc1 [Example 100, 5-methyl-N-[(4-methylphenyl)methyl]thieno[2,3-d]pyrimidin-4-amine]
Cc1csc2ncnc(NCc3cccc(F)c3)c12 [Example 102, N-[(3-fluorophenyl)methyl]-5-methylthieno[2,3-d]pyrimidin-4-amine]
Cc1csc2ncnc(NCc3ccc(F)cc3)c12 [Example 103, N-[(4-fluorophenyl)methyl]-5-methylthieno[2,3-d]pyrimidin-4-amine]
Cc1csc2ncnc(NCc3ccccc3F)c12 [Example 104, N-[(2-fluorophenyl)methyl]-5-methylthieno[2,3-d]pyrimidin-4-amine]
Cc1csc2ncnc(NC(C)CCCC(C)C)c12 (stereo not shown) [Example 108, 5-methyl-N-(6-methylheptan-2-yl)thieno[2,3-d]pyrimidin-4-amine]
CCOC(=O)CC(C)Nc1ncnc2scc(C)c12 (stereo not shown) [Example 110, ethyl 3-({5-methylthieno[2,3-d]pyrimidin-4-yl}amino)butanoate]
Cc1csc2ncnc(NC3CCc4ccccc43)c12 (stereo not shown) [Example 111, N-(2,3-dihydro-1H-inden-1-yl)-5-methylthieno[2,3-d]pyrimidin-4-amine]
Cc1ccc(C)c(CNc2ncnc3scc(C)c23)c1 [Example 113, N-[(2,5-dimethylphenyl)methyl]-5-methylthieno[2,3-d]pyrimidin-4-amine]
Cc1ccc([C@H](C)Nc2ncnc3scc(C)c23)cc1 [Example 114, 5-methyl-N-[(1S)-1-(4-methylphenyl)ethyl]thieno[2,3-d]pyrimidin-4-amine]
Cc1csc2ncnc(NCC(C)c3ccccc3)c12 (stereo not shown) [Example 116, 5-methyl-N-(2-phenylpropyl)thieno[2,3-d]pyrimidin-4-amine]
Cc1csc2ncnc(NCCCc3ccccc3)c12 [Example 117, 5-methyl-N-(3-phenylpropyl)thieno[2,3-d]pyrimidin-4-amine]
Cc1ccc(CNc2ncnc3scc(C)c23)cc1C [Example 118, N-[(3,4-dimethylphenyl)methyl]-5-methylthieno[2,3-d]pyrimidin-4-amine]
Cc1csc2ncnc(NCC(C)c3ccccc3)c12 (stereo not shown) [Example 119, 5-methyl-N-(2-phenylpropyl)thieno[2,3-d]pyrimidin-4-amine]
Cc1csc2ncnc(NCCc3ccc(O)cc3)c12 [Example 121, 4-[2-({5-methylthieno[2,3-d]pyrimidin-4-yl}amino)ethyl]phenol]
Cc1csc2ncnc(NCCOc3ccccc3)c12 [Example 122, 5-methyl-N-(2-phenoxyethyl)thieno[2,3-d]pyrimidin-4-amine]
COc1ccccc1CNc1ncnc2scc(C)c12 [Example 123, N-[(2-methoxyphenyl)methyl]-5-methylthieno[2,3-d]pyrimidin-4-amine]
COc1ccc(CNc2ncnc3scc(C)c23)cc1 [Example 124, N-[(4-methoxyphenyl)methyl]-5-methylthieno[2,3-d]pyrimidin-4-amine]
COc1cccc(CNc2ncnc3scc(C)c23)c1 [Example 125, N-[(3-methoxyphenyl)methyl]-5-methylthieno[2,3-d]pyrimidin-4-amine]
Cc1csc2ncnc(NCCc3ccccc3F)c12 [Example 127, N-[2-(2-fluorophenyl)ethyl]-5-methylthieno[2,3-d]pyrimidin-4-amine]
Cc1csc2ncnc(NCc3cccc(Cl)c3)c12 [Example 129, N-[(3-chlorophenyl)methyl]-5-methylthieno[2,3-d]pyrimidin-4-amine]
Cc1csc2ncnc(NCc3ccccc3Cl)c12 [Example 130, N-[(2-chlorophenyl)methyl]-5-methylthieno[2,3-d]pyrimidin-4-amine]
Cc1csc2ncnc(NCc3ccc(Cl)cc3)c12 [Example 131, N-[(4-chlorophenyl)methyl]-5-methylthieno[2,3-d]pyrimidin-4-amine]
Cc1csc2ncnc(NCc3ccc(F)cc3F)c12 [Example 133, N-[(2,4-difluorophenyl)methyl]-5-methylthieno[2,3-d]pyrimidin-4-amine]
Cc1csc2ncnc(NCc3ccc(F)c(F)c3)c12 [Example 134, N-[(3,4-difluorophenyl)methyl]-5-methylthieno[2,3-d]pyrimidin-4-amine]
Cc1csc2ncnc(NCc3cc(F)cc(F)c3)c12 [Example 135, N-[(3,5-difluorophenyl)methyl]-5-methylthieno[2,3-d]pyrimidin-4-amine]
Cc1csc2ncnc(NCCCN3CCOCC3)c12 [Example 136, 5-methyl-N-[3-(morpholin-4-yl)propyl]thieno[2,3-d]pyrimidin-4-amine]
Cc1csc2ncnc(NC(C)CCc3ccccc3)c12 (stereo not shown) [Example 139, 5-methyl-N-(4-phenylbutan-2-yl)thieno[2,3-d]pyrimidin-4-amine]
Cc1csc2ncnc(NCc3ccc(C(C)C)cc3)c12 [Example 140, 5-methyl-N-{[4-(propan-2-yl)phenyl]methyl}thieno[2,3-d]pyrimidin-4-amine]
Cc1csc2ncnc(NCc3ccc4c(c3)OCO4)c12 [Example 141, N-(2H-1,3-benzodioxol-5-ylmethyl)-5-methylthieno[2,3-d]pyrimidin-4-amine]
Cc1csc2ncnc(N[C@H](CO)Cc3ccccc3)c12 [Example 143, (2S)-2-({5-methylthieno[2,3-d]pyrimidin-4-yl}amino)-3-phenylpropan-1-ol]
COc1ccccc1CCNc1ncnc2scc(C)c12 [Example 145, N-[2-(2-methoxyphenyl)ethyl]-5-methylthieno[2,3-d]pyrimidin-4-amine]
CCOc1ccccc1CNc1ncnc2scc(C)c12 [Example 146, N-[(2-ethoxyphenyl)methyl]-5-methylthieno[2,3-d]pyrimidin-4-amine]
Cc1csc2ncnc(NCCc3ccccc3Cl)c12 [Example 148, N-[2-(2-chlorophenyl)ethyl]-5-methylthieno[2,3-d]pyrimidin-4-amine]
Cc1csc2ncnc(NCCc3cccc(Cl)c3)c12 [Example 149, N-[2-(3-chlorophenyl)ethyl]-5-methylthieno[2,3-d]pyrimidin-4-amine]
Cc1csc2ncnc(NCc3ccc(F)c(Cl)c3)c12 [Example 152, N-[(3-chloro-4-fluorophenyl)methyl]-5-methylthieno[2,3-d]pyrimidin-4-amine]
Cc1csc2ncnc(NCCNC(=O)OC(C)(C)C)c12 [Example 154, tert-butyl N-[2-({5-methylthieno[2,3-d]pyrimidin-4-yl}amino)ethyl]carbamate]
